Literature values, collected in patent publication US20030008844A1, “Use of sulodexide for the treatment of inflammatory bowel disease” (Keryx Biopharmaceuticals, Inc., priority 2001, published 2003).

How the values were obtained:
[1] = test system: steroid-dependent chronically active Crohn's disease; settings: placebo-controlled trial
perianal Crohn's disease = settings: uncontrolled trials
ulcerative colitis = settings: placebo-controlled trial
mild to moderate UC = settings: oral

## CN(Cc1cnc2nc(N)nc(N)c2n1)c1ccc(C(=O)N[C@@H](CCC(=O)O)C(=O)O)cc1 [methotrexate, Methotrexate]
[1]
  rates of clinical remission: substantially improved

## Cc1ncc([N+](=O)[O-])n1CCO [metronidazole]
Perianal Crohn's disease
  patients showing improvements: practically all patients showed improvements

## CN1CCCC1c1cccnc1 (stereo not shown) [nicotine, Nicotine]
Ulcerative colitis
  maintaining remission of ulcerative colitis: ineffective

## O=C(O)c1cc(/N=N/c2ccc(S(=O)(=O)Nc3ccccn3)cc2)ccc1O [sulfasalazine]
Mild to moderate UC
  efficacy in treatment of mild to moderate UC: superior to placebo and similar or superior to steroid enemas
